This is an account of results in ChEMBL document CHEMBL1201862, “PubChem BioAssay data set” (2004).

Common to all, as to experiment: growth of human tumour cells (NCI), 48 h
Assay [1] has as its system 786-0.
Assay [2] deals with A549.
In assay [3] the test system is COLO 205.
Assay [4] has as its system HOP-62.
Assay [5] has as its system HT-29.
For assay [6], the system named is IGROV-1.
The subject of assay [7] is M14.
The subject of assay [8] is NCI-H23.
Assay [9] has as its system OVCAR-3.
Assay [10] relates to RPMI-8226.
Assay [11] concerns RXF 393.
In assay [12] the test system is SF-539.
The subject of assay [13] is SW-620.
For assay [14], the system named is UACC-257.
Assay [15] concerns UACC-62.
Assay [16] has as its system UO-31.

Each structure is given as a SMILES string.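 Growth conditions: 96-well plates. Treatment: test compound, 48 hours, 5 concentrations. Analysis: linear interpolation between bracketing concentrations; unreached endpoints set to highest concentration. GI50 marks 50% less growth.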 The source made the active and inactive calls. No stated cut-off is given here; in the data, active = GI50 up to about 1.1 µM and inactive = higher.

Regarding `CC(C)CCS(=O)(=O)OCCCCOS(=O)(=O)CCC(C)C`, the GI50 is > 100 µM (inactive) in assay [1]; > 100 µM (inactive) in assay [2]; > 100 µM (inactive) in assay [3]; 13.9 µM (inactive) in [4]; > 100 µM (inactive) in assay [5]; > 100 µM (inactive) in assay [6]. The GI50 in assay [7] was 16.1 µM (inactive); in assay [8], > 100 µM (inactive); in assay [9] it was 16.4 µM (inactive); in assay [10], > 100 µM (inactive); in [11] it was > 100 µM (inactive); in [12] it was > 100 µM (inactive). The GI50 in [13], in assay [14], in [15] and in assay [16] was > 100 µM (inactive) each time.
Consider `Oc1cc(O)cc(/C=C/c2ccc(O)c(O)c2)c1` [PICEATANNOL], for which the GI50 is 18.8 µM (inactive) in assay [2]; 23.3 µM (inactive) in assay [3]; 16.3 µM (inactive) in assay [4]; 23.2 µM (inactive) in [5]; 9.64 µM (inactive) in [6]; 17.3 µM (inactive) in [8]. For the same compound, the GI50 in assay [9] was 25.8 µM (inactive); in assay [10], 10.3 µM (inactive); in assay [11], 8.77 µM (inactive); in assay [12], 8.91 µM (inactive); in assay [13] it was 13 µM (inactive); in [14], > 76.6 µM (inactive). Besides, the GI50 in [15] is 3.53 µM (inactive); in assay [16], 10.4 µM (inactive).
For the compound `CCOC(=O)c1cnc2sc3ccc4ccccc4c3n2c1=O`, the GI50 in assay [1] is > 100 µM (inactive); in [2], 53.3 µM (inactive); in assay [3], 79.3 µM (inactive); in [4] it was > 100 µM (inactive); in [5] it was 87.5 µM (inactive); in assay [6] it was 42.5 µM (inactive). Further, the GI50 in assay [7] is 81.1 µM (inactive); in [8], 62.5 µM (inactive); in assay [9], 82.2 µM (inactive); in assay [10] it was 27.9 µM (inactive); in [11], > 100 µM (inactive); in assay [12] it was 30.1 µM (inactive). For the same compound, the GI50 in [13] was > 100 µM (inactive); in [14], 87.9 µM (inactive); in assay [15] it was 77.6 µM (inactive); in assay [16], 23.9 µM (inactive).
For `O=C1OC(c2ccccc2)=N/C1=C\c1c(O)cc(O)cc1O`, the GI50 was > 100 µM (inactive) in assay [1]; > 100 µM (inactive) in assay [2]; > 100 µM (inactive) in assay [3]; > 100 µM (inactive) in [5]; > 100 µM (inactive) in assay [6]; 60.3 µM (inactive) in assay [7]. In addition, the GI50 in [8], in assay [9], in assay [10], in [11], in [12] and in assay [13] was > 100 µM (inactive) each time. For the same compound, the GI50 was > 100 µM (inactive) in assay [14], 27.9 µM (inactive) in [15] and > 100 µM (inactive) in assay [16].
On to `c1ccc(C2=NOC3(c4ccccc4)SC4CCCCC4CN23)cc1` (configuration not stated), for which the GI50 in [1] is 49.1 µM (inactive); in [2], 20.5 µM (inactive); in [3], 27.6 µM (inactive); in assay [4], 38.7 µM (inactive); in assay [5], 28.2 µM (inactive); in [6], 14.7 µM (inactive). Moreover, the GI50 is 21.9 µM (inactive) in assay [7]; 29.8 µM (inactive) in assay [8]; 39.4 µM (inactive) in [9]; 22 µM (inactive) in assay [10]; 15.9 µM (inactive) in [11]; 18.7 µM (inactive) in assay [12]. Also, the GI50 in assay [13] is 30.6 µM (inactive); in assay [14] it was 38.5 µM (inactive); in assay [15] it was 25 µM (inactive); in [16], 27.5 µM (inactive).
For the compound `COc1cc2c(cc1OC)C(C(c1ccccc1)c1ccccc1)N(C)CC2` (configuration not stated), the GI50 was > 100 µM (inactive) in assay [2]; 16.1 µM (inactive) in assay [3]; > 100 µM (inactive) in assay [4]; 35.1 µM (inactive) in assay [5]; 70.6 µM (inactive) in assay [6]; > 100 µM (inactive) in assay [8]. Also, the GI50 in assay [9] is > 84.7 µM (inactive); in assay [10] it was 36.6 µM (inactive); in assay [11], 20 µM (inactive); in assay [12] it was > 100 µM (inactive); in assay [13] it was > 100 µM (inactive); in assay [14], 32.9 µM (inactive). Besides, the GI50 in assay [15] is > 86.7 µM (inactive); in assay [16], > 63.7 µM (inactive).
As for `COc1cc(/C=C/C(=O)c2cccc3ccccc23)cc(OC)c1OC`, the GI50 in [1] is 4.49 µM (inactive); in assay [2], 8.18 µM (inactive); in assay [4] it was 6.82 µM (inactive); in assay [5] it was 4.27 µM (inactive); in [6] it was 15.4 µM (inactive); in assay [7] it was 5.93 µM (inactive). Moreover, the GI50 in assay [8] is 5.32 µM (inactive); in assay [9] it was 12.8 µM (inactive); in assay [11], 2.33 µM (inactive); in assay [13], 2.75 µM (inactive); in [14], 6.37 µM (inactive); in assay [15] it was 6.71 µM (inactive). Further, the GI50 in assay [16] is 16.8 µM (inactive).
For the compound `CC1=C2[C@H](c3ccccc3)C3C=CC2(c2ccccc23)N(C(=O)C(c2ccccc2)c2ccccc2)C1=O` (some centres not stated), the GI50 in assay [1], in assay [2], in assay [3], in assay [4], in assay [5] and in assay [6] was > 100 µM (inactive) each time. In addition, the GI50 in assay [7], in assay [8], in assay [9], in assay [11], in assay [12] and in assay [13] was > 100 µM (inactive) in each case. Moreover, the GI50 in assay [14], in assay [15] and in assay [16] was > 100 µM (inactive) throughout.
Take `CCOC(=O)c1nc2ccc([N+](=O)[O-])cc2c2c1CCO2`: the GI50 in assay [1], in [2], in assay [3], in assay [4], in [5] and in assay [6] was > 100 µM (inactive) in each case. For the same compound, the GI50 in assay [7], in assay [8], in assay [9], in assay [11], in assay [12] and in assay [13] was > 100 µM (inactive) each time. In addition, the GI50 in assay [14] and in assay [15] was > 100 µM (inactive) each time.
Take `Oc1cc(Cl)ncn1`: the GI50 in [1], in [2], in assay [3], in [4], in [5] and in [6] was > 100 µM (inactive) throughout. The GI50 in [7], in assay [8], in assay [9], in [10], in [13] and in assay [14] was > 100 µM (inactive) each time. Further, the GI50 in assay [15] and in assay [16] was > 100 µM (inactive) throughout.
Consider `O=C1CCC(=O)C(C(=O)CCC(=O)Nc2ccc(Cl)cc2)C1` (configuration not stated), for which the GI50 in assay [1], in assay [2], in [3], in [5], in assay [6] and in [7] was > 100 µM (inactive) each time. For the same compound, the GI50 in assay [8], in assay [9], in [10], in assay [12], in assay [13] and in assay [14] was > 100 µM (inactive) each time. Besides, the GI50 in assay [15] and in assay [16] was > 100 µM (inactive) throughout.
On to `O=C1C=C2SC3C[C@@]24CC1[N+]1=c2c4c(c(O)c4c2=C(C=N4)CC1)N3`, for which the GI50 was 6.17 µM (inactive) in assay [2]; 1.91 µM (inactive) in assay [3]; 17.8 µM (inactive) in assay [4]; 2.44 µM (inactive) in assay [6]; 0.938 µM (active) in [9]; 2.08 µM (inactive) in [10]. Further, the GI50 in assay [11] is 1.99 µM (inactive); in [12], 1.9 µM (inactive); in [13], 2.62 µM (inactive); in [14], 1.7 µM (inactive); in [15] it was 1.78 µM (inactive); in assay [16], 16.6 µM (inactive).
In the case of `Cc1c(C2Cc3ccccc3N2C(=O)/C=C\C(=O)O)c2ccccc2n1C` (configuration not stated), the GI50 in assay [1] is 18.4 µM (inactive); in assay [2] it was 33 µM (inactive); in assay [3] it was 17.1 µM (inactive); in assay [4], 27.6 µM (inactive); in assay [5], 35.3 µM (inactive); in [6] it was 24.4 µM (inactive). For the same compound, the GI50 is 17.8 µM (inactive) in assay [7]; 25.9 µM (inactive) in assay [8]; 17.5 µM (inactive) in assay [9]; 17.2 µM (inactive) in assay [11]; 21.6 µM (inactive) in assay [12]; 20 µM (inactive) in [13]. The GI50 in [14] is 16.2 µM (inactive); in [15], 16.9 µM (inactive); in assay [16], 20.4 µM (inactive).
As to `CCOC(=O)c1c(C)c2c(n1C)CCc1c[nH]nc1-2`, the GI50 in assay [2], in assay [3], in assay [4], in [5], in [6] and in [8] was > 100 µM (inactive) in each case. Also, the GI50 in assay [9], in assay [10], in assay [11], in assay [12], in assay [13] and in assay [14] was > 100 µM (inactive) in each case. The GI50 in [15] and in [16] was > 100 µM (inactive) in each case.
